Experimental findings from US8987449B2, “Medicine for treating ischemic brain injury and its sequelae, and preparation method thereof” (Haimin Lei, priority 2011, dated 2015) are described below.

SMILES strings stand for the structures.

In the series the test system is ICR white mice. Nature of the series: Acute toxic experiment of mice by oral administration. It is filed as in vivo, mouse. Also on record: key to Animal reaction in 14 days after the administration: appearance / Animal reaction in 14 days after the administration: behavior / Animal reaction in 14 days after the administration: hair / Animal reaction in 14 days after the administration: respiration / Animal reaction in 14 days after the administration: posture / Animal reaction in 14 days after the administration: reaction: ✓ means normal. The note with it: for Animal reaction in 14 days after the administration: death: 10 animals; for Animal reaction in 14 days after the administration: death / Animal reaction in 14 days after the administration: appearance / Animal reaction in 14 days after the administration: behavior / Animal reaction in 14 days after the administration: hair / Animal reaction in 14 days after the administration: posture / Animal reaction in 14 days after the administration: reaction / Animal reaction in 14 days after the administration: respiration: oral 3 x 1800 mg/kg (5400 mg/kg) in one day. As to the method: ICR white mice (half female and half male, 18-22 g, experiment animal certificate No.: SCXK (Jing) 2006-0009);
LQC-T4 (white powder (self made); and LQC-T4 4500 mg was dissolved into 0.5% sodium carboxymethyl cellulose 100 ml and then suspended by supersonic wave. The suspension was used in situ).
The qualified animals were quarantined and weighed before the administration. The animals were divided into groups randomly by weight. The intragastric administration tool was used for mice to carry out the intragastric administration. The mice were fasted but not water-deprived (continuously for 14 h) overnight before being administrated. The mice were administrated at 9:00 AM for the first time (1800 mg/kg) on the present administration day and observed continuously for 1 h. The mice were administrated for the second time (1800 mg/kg) at an interval of 6 h since the first administration and observed continuously for 1 h. The mice were administrated for the third time (1800 mg/kg) at an interval of 6 h since the second administration, observed continuously for 1 h and then the mice were fed.

`COc1cc(C(=O)OCc2nc(C)c(C)nc2C)ccc1OCc1nc(C)c(C)nc1C` [LQC-T4, (3,5,6-trimethylpyrazine-2-yl)methyl 3-methoxy-4-((3,5,6-trimethylpyrazine-2-yl)methoxy) benzoate]: for the setting “mice ♀”, the “Animal reaction in 14 days after the administration: death” value is recorded as 0, the “Animal reaction in 14 days after the administration: appearance” value was “✓”, the “Animal reaction in 14 days after the administration: behavior” value is listed as “✓” and the “Animal reaction in 14 days after the administration: hair” value is reported as “✓”. Also, for the setting “mice ♀”, the “Animal reaction in 14 days after the administration: posture” value is “✓”, the “Animal reaction in 14 days after the administration: reaction” value is listed as “✓” and the “Animal reaction in 14 days after the administration: respiration” value is listed as “✓”. In addition, for the setting “mice ♂”, the “Animal reaction in 14 days after the administration: death” value is 0, the “Animal reaction in 14 days after the administration: appearance” value is on record as “✓”, the “Animal reaction in 14 days after the administration: behavior” value was “✓” and the “Animal reaction in 14 days after the administration: hair” value was “✓”. Moreover, where the note is “mice ♂”, the “Animal reaction in 14 days after the administration: posture” value was “✓”, the “Animal reaction in 14 days after the administration: reaction” value is “✓” and the “Animal reaction in 14 days after the administration: respiration” value was “✓”. For the same molecule, the “death in 12 h after the administration” value (mice, oral 3 x 1800 mg/kg) is on record as “No death was observed”. Further, under “mice, oral, maximum dosage of 5400 mg/kg, observed continuously for 14 days”, the “toxic reaction at the maximum dosage” value is listed as “No toxic reaction was observed”.
